The record followed here is publication PMC9867837 (Cancer letters, 2022).

The target in one experiment is T1, pYStat3C542S (Homo sapiens, UniProt P40763, C542S).
T1 construct: made in house; host or cells: E. coli BL21(DE3) TKB1 (inducible tyrosine kinase)
Nature of the experiment: EMSA with purified mutant pYStat3C542S. The settings on record: 3 μM H182, 30 min. Format: biochemical. The source says:
This construct was used to generate the mutants, Stat3C328A, Stat3C426A, Stat3C468A, and Stat3C542S, as described in detail in Supplementary Information “Methods”.
The expression of un-phosphorylated and tyrosine phosphorylated His-tagged recombinant wtStat3 and mutant Stat3 proteins in BL21 (DE3) bacterial cells is described in detail in Supplementary Information “Methods”.
Given the MS data, we conducted site-directed mutagenesis analysis for the effects of Cys mutations (Cys-to-Ala or Cys-to-Ser mutations) on the inhibitory activities or potencies of the compounds. […]
In another case, the nuclear extract was pre-incubated with the radiolabeled probe for 30 min at 30 °C prior to incubation with increasing concentration of H182 at room temperature for 30 min and subjecting to EMSA analysis. Bands corresponding to Stats DNA- binding activities were scanned and quantified using ImageJ and plotted as a percentage of control (vehicle) against the concentration of the inhibitor, from which the IC50 values were derived . […]
These studies were performed as previously reported using the v-Src -transformed NIH3T3/v-Src fibroblasts [1 -5] . […] Luciferase activity was normalized to total protein concentration of cell lysate, which was determined by Bradford assay (Bio-Rad, Hercules, CA) . […]

In the next experiment the test system is MDA-MB-231 cells. Nature of the experiment: Immunoblotting for cleaved PARP and caspase 3. In kind it is cell-based, human. The settings on record: 1 μM for 0–24 h or increasing concentration for 2 h. As to the method:
These studies were performed as previously described. Details are presented in Supplementary Information, “Methods”.
Aberrantly-active Stat3 promotes tumor cell growth and proliferation, survival, migration, invasion, and metastasis.
These studies were performed as previously described [1 -3] . Briefly, snap-frozen tumor tissues or cultured cells treated or not were harvested and whole-cell or tissue lysates were prepared in radioimmunoprecipitation assay (RIPA) buffer. Samples of equal total protein were subjected to SDS - PAGE and immunoblotting analysis. Primary antibodies used were anti- Stat3, pY705-Stat3, pS727Stat3, […]
Akt, pT202/Y204Erk1/2 (p44/42), Erk1/2, PARP , caspase 3, c-Myc, survivin, VEGF, β-actin, α/β-tubulin, and GAPDH. For the studies of the effects of cell density and confluence on pY705Stat3, cells were seeded […] in culture dishes. The next day, cells were untreated (DMSO control, […]
0.1%) or treated at the same time with 1 or 2 µM H182, allowed to incubate for the indicated time and then harvested for whole-cell lysate preparation and SDS -PAGE / immunoblotting analy sis. […]
concentration of H182 for 6 h and then treated with 0- 100 nM docetaxel or 0-20 µM cisplatin for a total of 72 h. Viable cell numbers were assessed by a CyQuant cell proliferation kit according to the manufacturer’s instructions (Thermo/Life Technologies Corp, Carlsbad, CA). […]

T1 sequence (P40763 127-711 C542S): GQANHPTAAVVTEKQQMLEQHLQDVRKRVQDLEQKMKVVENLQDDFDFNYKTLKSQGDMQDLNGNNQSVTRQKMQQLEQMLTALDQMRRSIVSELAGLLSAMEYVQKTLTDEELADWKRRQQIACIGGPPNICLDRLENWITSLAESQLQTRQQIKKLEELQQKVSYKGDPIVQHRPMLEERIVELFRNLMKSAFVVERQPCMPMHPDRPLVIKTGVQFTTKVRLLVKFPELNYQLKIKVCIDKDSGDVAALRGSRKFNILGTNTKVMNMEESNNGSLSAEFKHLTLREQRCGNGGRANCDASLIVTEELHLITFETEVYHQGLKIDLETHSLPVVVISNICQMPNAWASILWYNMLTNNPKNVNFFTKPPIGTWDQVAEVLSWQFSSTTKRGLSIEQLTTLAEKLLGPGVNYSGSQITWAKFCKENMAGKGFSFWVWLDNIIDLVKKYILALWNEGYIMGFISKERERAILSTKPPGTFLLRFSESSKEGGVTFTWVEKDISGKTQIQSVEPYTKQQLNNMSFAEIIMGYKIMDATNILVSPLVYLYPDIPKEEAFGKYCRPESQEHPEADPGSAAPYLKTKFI

Take `O=C([C@H]1CCN1S(=O)(=O)c1c(F)c(F)c(F)c(F)c1F)N(Cc1ccc(C2CCCCC2)cn1)c1ccc2c(=O)[nH]ncc2c1` [Compound H182]: the “Effect on DNA-binding activity of pYStat3C542S” value on pYStat3C542S was “strong inhibition”. In addition, the “Cleaved PARP and caspase 3” value in the experiment on MDA-MB-231 cells was “moderate levels”.
